Results: ChEMBL document CHEMBL4507284, “Data for DCP probe BI-1230” (2021)

What was measured:
[1] = target: Activin receptor type-2B (Homo sapiens) (UniProt Q13705); details: Compound concentration 1000.0 nM
[2] = target: Atypical kinase COQ8A, mitochondrial (Homo sapiens) (UniProt Q8NI60); details: Compound concentration 1000.0 nM
[3] = target: Aurora kinase A (Homo sapiens) (UniProt O14965); details: Compound concentration 1000.0 nM
[4] = target: Tyrosine-protein kinase receptor UFO (Homo sapiens) (UniProt P30530); details: Compound concentration 1000.0 nM
[5] = target: Bone morphogenetic protein receptor type-2 (Homo sapiens) (UniProt Q13873); details: Compound concentration 1000.0 nM
[6] = tested on: Serine/threonine-protein kinase B-raf (Homo sapiens), P15056 [V600E]; details: Compound concentration 1000.0 nM
[7] = target: Tyrosine-protein kinase BTK (Homo sapiens) (UniProt Q06187); details: Compound concentration 1000.0 nM
[8] = target: Mitotic checkpoint serine/threonine-protein kinase BUB1 (Homo sapiens) (UniProt O43683); details: Compound concentration 1000.0 nM
[9] = target: Calcium/calmodulin-dependent protein kinase type II subunit delta (Homo sapiens) (UniProt Q13557); details: Compound concentration 1000.0 nM
[10] = target: Calcium/calmodulin-dependent protein kinase kinase 2 (Homo sapiens) (UniProt Q96RR4); details: Compound concentration 1000.0 nM
[11] = target: Cyclin-dependent kinase 19 (Homo sapiens) (UniProt Q9BWU1); details: Compound concentration 1000.0 nM
[12] = target: Cyclin-dependent kinase 7 (Homo sapiens) (UniProt P50613); details: Compound concentration 1000.0 nM
[13] = target: Dual specificity protein kinase CLK3 (Homo sapiens) (UniProt P49761); details: Compound concentration 1000.0 nM
[14] = target: Casein kinase I isoform alpha (Homo sapiens) (UniProt P48729); details: Compound concentration 1000.0 nM
[15] = target: Casein kinase II subunit alpha (Homo sapiens) (UniProt P68400); details: Compound concentration 1000.0 nM
[16] = target: Dual specificity tyrosine-phosphorylation-regulated kinase 1A (Homo sapiens) (UniProt Q13627); details: Compound concentration 1000.0 nM
[17] = tested on: Epidermal growth factor receptor (Homo sapiens), P00533 [UNDEFINED MUTATION]; details: Compound concentration 1000.0 nM
[18] = tested on: Epidermal growth factor receptor (Homo sapiens), P00533 [UNDEFINED MUTATION]; details: Compound concentration 1000.0 nM; remark: listed apart in the source
[19] = tested on: Epidermal growth factor receptor (Homo sapiens), P00533 [T790M]; details: Compound concentration 1000.0 nM
[20] = target: Ephrin type-B receptor 1 (Homo sapiens) (UniProt P54762); details: Compound concentration 1000.0 nM
[21] = target: Receptor-type tyrosine-protein kinase FLT3 (Homo sapiens) (UniProt P36888); details: Compound concentration 1000.0 nM
[22] = tested on: Receptor-type tyrosine-protein kinase FLT3 (Homo sapiens), P36888 [D835H]; details: Compound concentration 1000.0 nM
[23] = target: Vascular endothelial growth factor receptor 3 (Homo sapiens) (UniProt P35916); details: Compound concentration 1000.0 nM
[24] = target: Homeodomain-interacting protein kinase 4 (Homo sapiens) (UniProt Q8NE63); details: Compound concentration 1000.0 nM
[25] = target: Inhibitor of nuclear factor kappa-B kinase subunit alpha (Homo sapiens) (UniProt O15111); details: Compound concentration 1000.0 nM
[26] = target: Tyrosine-protein kinase JAK1 (Homo sapiens) (UniProt P23458); details: Compound concentration 1000.0 nM
[27] = tested on: Mast/stem cell growth factor receptor Kit (Homo sapiens), P10721 [D816H]; details: Compound concentration 1000.0 nM
[28] = target: LIM domain kinase 1 (Homo sapiens) (UniProt P53667); details: Compound concentration 1000.0 nM
[29] = target: Leucine-rich repeat serine/threonine-protein kinase 2 (Homo sapiens) (UniProt Q5S007); details: Compound concentration 1000.0 nM
[30] = tested on: Leucine-rich repeat serine/threonine-protein kinase 2 (Homo sapiens), Q5S007 [G2019S]; details: Compound concentration 1000.0 nM
[31] = target: Serine/threonine-protein kinase MRCK beta (Homo sapiens) (UniProt Q9Y5S2); details: Compound concentration 1000.0 nM
[32] = target: Myosin light chain kinase 2, skeletal/cardiac muscle (Homo sapiens) (UniProt Q9H1R3); details: Compound concentration 1000.0 nM
[33] = target: 3-phosphoinositide-dependent protein kinase 1 (Homo sapiens) (UniProt O15530); details: Compound concentration 1000.0 nM
[34] = target: Cyclin-dependent kinase 14 (Homo sapiens) (UniProt O94921); details: Compound concentration 1000.0 nM
[35] = tested on: Phosphatidylinositol 4,5-bisphosphate 3-kinase catalytic subunit alpha isoform (Homo sapiens), P42336 [E545A]; details: Compound concentration 1000.0 nM
[36] = tested on: Phosphatidylinositol 4,5-bisphosphate 3-kinase catalytic subunit alpha isoform (Homo sapiens), P42336 [M1043I]; details: Compound concentration 1000.0 nM
[37] = target: Phosphatidylinositol 4-kinase beta (Homo sapiens) (UniProt Q9UBF8); details: Compound concentration 1000.0 nM
[38] = target: Serine/threonine-protein kinase pim-2 (Homo sapiens) (UniProt Q9P1W9); details: Compound concentration 1000.0 nM
[39] = target: Serine/threonine-protein kinase N2 (Homo sapiens) (UniProt Q16513); details: Compound concentration 1000.0 nM
[40] = target: Ribosomal protein S6 kinase alpha-6 (Homo sapiens) (UniProt Q9UK32); details: Compound concentration 1000.0 nM
[41] = target: Tyrosine-protein kinase Srms (Homo sapiens) (UniProt Q9H3Y6); details: Compound concentration 1000.0 nM
[42] = target: Mitogen-activated protein kinase kinase kinase 7 (Homo sapiens) (UniProt O43318); details: Compound concentration 1000.0 nM
[43] = target: 5-hydroxytryptamine receptor 5A (Homo sapiens) (UniProt P47898); details: Compound concentration 10.0 uM
[44] = target: Histamine H1 receptor (Homo sapiens) (UniProt P35367); details: Compound concentration 10.0 uM
[45] = target: Alpha-2A adrenergic receptor (Homo sapiens) (UniProt P08913); details: Compound concentration 10.0 uM

Chain of Serine/threonine-protein kinase pim-2 (Homo sapiens) (Q9P1W9 whole entry, looked up): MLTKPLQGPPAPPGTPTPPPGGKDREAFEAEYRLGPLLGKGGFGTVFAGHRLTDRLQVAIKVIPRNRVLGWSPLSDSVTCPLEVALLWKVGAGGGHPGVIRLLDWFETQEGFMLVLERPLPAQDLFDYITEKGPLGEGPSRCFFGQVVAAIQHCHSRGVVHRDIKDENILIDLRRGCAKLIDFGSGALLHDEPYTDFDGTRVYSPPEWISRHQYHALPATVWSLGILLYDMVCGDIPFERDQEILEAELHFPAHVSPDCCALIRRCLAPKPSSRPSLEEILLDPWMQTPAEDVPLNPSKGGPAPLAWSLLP
Chain of Calcium/calmodulin-dependent protein kinase type II subunit delta (Homo sapiens) (Q13557 whole entry): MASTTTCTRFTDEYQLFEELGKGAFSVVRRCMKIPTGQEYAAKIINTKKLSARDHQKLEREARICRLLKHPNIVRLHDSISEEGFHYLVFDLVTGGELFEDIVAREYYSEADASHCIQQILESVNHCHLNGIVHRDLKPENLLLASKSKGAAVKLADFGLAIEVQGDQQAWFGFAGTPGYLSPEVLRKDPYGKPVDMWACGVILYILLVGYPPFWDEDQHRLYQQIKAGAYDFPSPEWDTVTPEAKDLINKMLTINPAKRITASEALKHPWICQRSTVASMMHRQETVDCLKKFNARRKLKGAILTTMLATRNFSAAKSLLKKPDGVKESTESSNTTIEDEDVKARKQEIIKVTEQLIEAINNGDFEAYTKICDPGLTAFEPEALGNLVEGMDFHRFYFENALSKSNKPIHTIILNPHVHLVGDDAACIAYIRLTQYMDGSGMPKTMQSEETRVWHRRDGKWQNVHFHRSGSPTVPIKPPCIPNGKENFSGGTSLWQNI
Chain of Homeodomain-interacting protein kinase 4 (Homo sapiens) (Q8NE63 whole entry): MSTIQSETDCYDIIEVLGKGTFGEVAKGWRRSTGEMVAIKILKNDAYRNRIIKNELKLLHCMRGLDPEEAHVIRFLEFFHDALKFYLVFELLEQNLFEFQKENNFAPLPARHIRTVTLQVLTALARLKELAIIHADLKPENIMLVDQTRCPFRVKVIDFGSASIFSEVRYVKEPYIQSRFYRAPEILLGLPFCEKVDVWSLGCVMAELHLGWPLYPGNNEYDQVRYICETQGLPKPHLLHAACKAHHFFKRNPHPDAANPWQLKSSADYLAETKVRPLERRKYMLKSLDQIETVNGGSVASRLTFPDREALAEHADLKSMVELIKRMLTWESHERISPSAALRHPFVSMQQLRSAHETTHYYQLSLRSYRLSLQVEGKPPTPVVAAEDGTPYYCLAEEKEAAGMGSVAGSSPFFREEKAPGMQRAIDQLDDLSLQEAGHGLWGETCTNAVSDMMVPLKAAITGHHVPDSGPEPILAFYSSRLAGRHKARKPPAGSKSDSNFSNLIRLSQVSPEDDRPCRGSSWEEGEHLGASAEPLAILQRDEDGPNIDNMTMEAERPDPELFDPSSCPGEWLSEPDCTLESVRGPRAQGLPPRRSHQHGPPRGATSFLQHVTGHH
Chain of Casein kinase I isoform alpha (Homo sapiens) (P48729 2-337 limits assumed): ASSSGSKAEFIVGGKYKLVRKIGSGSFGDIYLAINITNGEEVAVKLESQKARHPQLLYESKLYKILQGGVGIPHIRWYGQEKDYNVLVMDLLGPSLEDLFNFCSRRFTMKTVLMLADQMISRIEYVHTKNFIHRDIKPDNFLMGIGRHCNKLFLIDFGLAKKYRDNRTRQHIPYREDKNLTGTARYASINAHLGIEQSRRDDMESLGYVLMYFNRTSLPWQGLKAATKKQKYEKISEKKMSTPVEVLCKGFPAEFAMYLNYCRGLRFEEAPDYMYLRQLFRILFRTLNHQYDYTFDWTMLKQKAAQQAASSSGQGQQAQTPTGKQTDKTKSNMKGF
Chain of Mast/stem cell growth factor receptor Kit (Homo sapiens), P10721 [D816H] (P10721 whole entry D816H, the tested form may be a part): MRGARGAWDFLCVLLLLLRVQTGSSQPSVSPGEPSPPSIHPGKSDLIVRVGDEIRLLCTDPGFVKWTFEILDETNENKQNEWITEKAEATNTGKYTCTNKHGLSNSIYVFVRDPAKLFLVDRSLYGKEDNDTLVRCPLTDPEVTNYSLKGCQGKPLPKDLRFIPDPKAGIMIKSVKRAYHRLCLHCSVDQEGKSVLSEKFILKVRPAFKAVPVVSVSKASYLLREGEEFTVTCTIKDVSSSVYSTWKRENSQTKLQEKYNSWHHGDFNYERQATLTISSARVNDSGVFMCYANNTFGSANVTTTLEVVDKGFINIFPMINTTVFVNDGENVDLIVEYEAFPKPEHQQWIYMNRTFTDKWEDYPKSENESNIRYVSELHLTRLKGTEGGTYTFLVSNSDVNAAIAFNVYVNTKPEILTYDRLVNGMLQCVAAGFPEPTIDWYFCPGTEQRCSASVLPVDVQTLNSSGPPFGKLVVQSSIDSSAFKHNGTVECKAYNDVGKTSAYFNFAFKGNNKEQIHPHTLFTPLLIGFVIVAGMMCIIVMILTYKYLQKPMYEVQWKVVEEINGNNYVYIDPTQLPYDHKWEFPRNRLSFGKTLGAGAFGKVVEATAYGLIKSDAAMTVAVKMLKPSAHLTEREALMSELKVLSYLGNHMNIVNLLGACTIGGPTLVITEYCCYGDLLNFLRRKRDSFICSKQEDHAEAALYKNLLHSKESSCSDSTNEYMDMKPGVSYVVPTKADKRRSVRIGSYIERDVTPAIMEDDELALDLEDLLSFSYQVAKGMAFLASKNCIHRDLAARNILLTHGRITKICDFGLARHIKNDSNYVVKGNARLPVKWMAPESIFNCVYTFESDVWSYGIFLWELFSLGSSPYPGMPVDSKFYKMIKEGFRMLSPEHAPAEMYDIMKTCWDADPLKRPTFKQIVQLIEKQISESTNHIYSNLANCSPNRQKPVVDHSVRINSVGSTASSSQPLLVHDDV
Chain of Tyrosine-protein kinase BTK (Homo sapiens) (Q06187 whole entry): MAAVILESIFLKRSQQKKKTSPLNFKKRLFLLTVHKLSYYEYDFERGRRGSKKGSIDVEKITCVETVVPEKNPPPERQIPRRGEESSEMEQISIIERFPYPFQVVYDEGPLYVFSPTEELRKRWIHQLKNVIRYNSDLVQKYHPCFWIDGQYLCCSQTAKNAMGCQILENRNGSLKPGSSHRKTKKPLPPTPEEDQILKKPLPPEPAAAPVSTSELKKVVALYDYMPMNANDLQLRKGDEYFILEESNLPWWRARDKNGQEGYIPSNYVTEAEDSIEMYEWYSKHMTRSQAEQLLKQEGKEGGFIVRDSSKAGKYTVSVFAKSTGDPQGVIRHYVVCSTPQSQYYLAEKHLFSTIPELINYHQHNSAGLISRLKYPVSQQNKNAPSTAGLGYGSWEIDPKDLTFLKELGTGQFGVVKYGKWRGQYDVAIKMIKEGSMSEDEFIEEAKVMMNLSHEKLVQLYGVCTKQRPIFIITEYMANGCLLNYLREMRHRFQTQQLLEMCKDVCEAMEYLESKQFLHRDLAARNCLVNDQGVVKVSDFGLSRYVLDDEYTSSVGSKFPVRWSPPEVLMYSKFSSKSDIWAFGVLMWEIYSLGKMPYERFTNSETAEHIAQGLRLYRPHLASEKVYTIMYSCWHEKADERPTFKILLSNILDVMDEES
Chain of 5-hydroxytryptamine receptor 5A (Homo sapiens) (P47898 whole entry): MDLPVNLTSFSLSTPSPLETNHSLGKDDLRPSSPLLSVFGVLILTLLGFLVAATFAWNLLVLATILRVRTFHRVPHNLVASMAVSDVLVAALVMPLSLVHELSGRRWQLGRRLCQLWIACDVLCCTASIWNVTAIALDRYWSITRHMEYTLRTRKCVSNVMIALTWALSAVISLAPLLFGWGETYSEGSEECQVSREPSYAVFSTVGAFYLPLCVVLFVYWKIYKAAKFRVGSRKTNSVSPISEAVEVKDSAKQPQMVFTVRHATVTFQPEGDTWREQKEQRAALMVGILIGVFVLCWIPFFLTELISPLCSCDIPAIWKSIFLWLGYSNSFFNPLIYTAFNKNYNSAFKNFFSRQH
Chain of Dual specificity protein kinase CLK3 (Homo sapiens) (P49761 whole entry, looked up, canonical isoform): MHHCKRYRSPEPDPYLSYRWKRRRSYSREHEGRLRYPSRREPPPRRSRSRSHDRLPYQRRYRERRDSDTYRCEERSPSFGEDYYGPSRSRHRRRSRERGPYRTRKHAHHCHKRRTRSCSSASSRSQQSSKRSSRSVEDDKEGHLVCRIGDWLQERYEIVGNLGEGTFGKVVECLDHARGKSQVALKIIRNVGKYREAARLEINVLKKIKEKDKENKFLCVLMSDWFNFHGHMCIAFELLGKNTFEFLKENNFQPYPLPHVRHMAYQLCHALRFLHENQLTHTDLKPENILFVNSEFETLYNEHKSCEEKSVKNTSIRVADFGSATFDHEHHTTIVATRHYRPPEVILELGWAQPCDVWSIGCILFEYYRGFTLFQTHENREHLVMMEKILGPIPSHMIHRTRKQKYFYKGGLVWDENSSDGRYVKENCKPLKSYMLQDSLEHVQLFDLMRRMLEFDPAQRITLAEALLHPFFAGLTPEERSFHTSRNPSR
Chain of Inhibitor of nuclear factor kappa-B kinase subunit alpha (Homo sapiens) (O15111 whole entry): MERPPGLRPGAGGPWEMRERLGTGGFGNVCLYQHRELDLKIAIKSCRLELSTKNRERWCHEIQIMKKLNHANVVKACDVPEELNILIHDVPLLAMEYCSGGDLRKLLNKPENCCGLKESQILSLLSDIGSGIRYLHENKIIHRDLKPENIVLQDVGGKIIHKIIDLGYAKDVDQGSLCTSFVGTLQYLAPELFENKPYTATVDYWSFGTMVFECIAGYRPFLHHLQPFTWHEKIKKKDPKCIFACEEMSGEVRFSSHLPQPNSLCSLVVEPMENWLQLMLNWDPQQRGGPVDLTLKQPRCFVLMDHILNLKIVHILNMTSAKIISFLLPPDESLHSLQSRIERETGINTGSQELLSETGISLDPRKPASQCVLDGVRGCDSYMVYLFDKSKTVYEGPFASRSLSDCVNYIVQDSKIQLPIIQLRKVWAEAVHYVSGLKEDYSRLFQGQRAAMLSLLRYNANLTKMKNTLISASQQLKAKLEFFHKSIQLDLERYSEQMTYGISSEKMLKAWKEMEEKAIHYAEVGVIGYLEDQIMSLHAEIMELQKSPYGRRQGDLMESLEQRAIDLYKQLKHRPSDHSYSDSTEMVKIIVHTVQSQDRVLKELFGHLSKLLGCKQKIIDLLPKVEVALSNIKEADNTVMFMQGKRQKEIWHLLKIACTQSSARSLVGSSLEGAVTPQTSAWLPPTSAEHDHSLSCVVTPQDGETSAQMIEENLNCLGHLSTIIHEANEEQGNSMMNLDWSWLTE

COc1ccc2c(O[C@@H]3C[C@H]4C(=O)N[C@]5(C(=O)O)CC5/C=C\CCCCC[C@H](NC(=O)OC5CCCC5)C(=O)N4C3)cc(-c3csc(NC(=O)C(C)C)n3)nc2c1C (stereo not given in full) [BI 1230]
inactive: residual activity [1] 100% | residual activity [2] 100% | residual activity [3] 69% | residual activity [4] 97% | residual activity [5] 84% | residual activity [6] 77% | residual activity [7] 85% | residual activity [8] 96% | residual activity [9] 100% | residual activity [10] 100% | residual activity [11] 90% | residual activity [12] 62% | residual activity [13] 100% | residual activity [14] 68% | residual activity [15] 81% | residual activity [16] 79% | residual activity [17] 98% | residual activity [18] 62% | residual activity [19] 85% | residual activity [20] 100% | residual activity [21] 88% | residual activity [22] 73% | residual activity [23] 100% | residual activity [24] 99% | residual activity [25] 92% | residual activity [26] 100% | residual activity [27] 86% | residual activity [28] 100% | residual activity [29] 92% | residual activity [30] 91% | residual activity [31] 96% | residual activity [32] 100% | residual activity [33] 99% | residual activity [34] 88% | residual activity [35] 100% | residual activity [36] 88% | residual activity [37] 71% | residual activity [38] 100% | residual activity [39] 67% | residual activity [40] 100% | residual activity [41] 98% | residual activity [42] 67% | inhibition [43] 22.1% | inhibition [44] 31.5% | inhibition [45] 15.3%

O=C(N[C@H]1CCCCC/C=C\C2C[C@@]2(C(=O)O)NC(=O)[C@@H]2C[C@@H](Oc3ccncc3)CN2C1=O)OC1CCCC1 (stereo not given in full) [BI 1675]
inactive: residual activity [1] 100% | residual activity [2] 90% | residual activity [3] 92% | residual activity [4] 95% | residual activity [5] 100% | residual activity [6] 93% | residual activity [7] 100% | residual activity [8] 100% | residual activity [9] 87% | residual activity [10] 95% | residual activity [11] 91% | residual activity [12] 71% | residual activity [13] 93% | residual activity [14] 80% | residual activity [15] 83% | residual activity [16] 84% | residual activity [17] 100% | residual activity [19] 91% | residual activity [20] 100% | residual activity [21] 93% | residual activity [22] 56% | residual activity [23] 93% | residual activity [24] 100% | residual activity [25] 100% | residual activity [26] 96% | residual activity [27] 100% | residual activity [28] 92% | residual activity [29] 100% | residual activity [30] 86% | residual activity [31] 100% | residual activity [32] 100% | residual activity [33] 92% | residual activity [34] 91% | residual activity [35] 100% | residual activity [36] 84% | residual activity [37] 81% | residual activity [38] 100% | residual activity [39] 75% | residual activity [40] 86% | residual activity [41] 100% | residual activity [42] 77% | inhibition [43] 1.81% | inhibition [44] 23.9% | inhibition [45] 0.78%
active: residual activity [18] 49%
